Values quoted from earlier work, collected in patent US4883862A, “Mercaptosuccinyl glycyl-glycyl-glycine a complex thereof with Tc-99m, and methods of making the same” (Albert Einstein College of Medicine - of Yeshiva University, priority 1988, dated 1989).

[1] = 3 hrs after intravenous administration of 500 uCi

O=C(O)CNC(=O)c1ccccc1[131I] [I-131 OIH, o-[^131 I]iodohippurate]
radiation dose to a normal kidney [1]: 47 mrad | radiation dose to the bladder wall [1]: 1.7 rad | renal absorbed dose (patients with impaired renal function): ≥ 3 rad
